Results from patent US9394263B2, “Substituted hetero-azepinones” (priority 2012, dated 2016).
Counter-ions that a name gives are not always drawn.

Assays:
[1] = molecular target: BIR3 domain of XIAP (Homo sapiens (Human), UniProt P98170); assay: TR-FRET assay for BIR3: inhibition of binding of XIAP BIR3 domain to Peptide A (SMAC-derived peptide); conditions: read-out: BIR3 IC50
[2] = molecular target: BIR2 domain of XIAP (Homo sapiens (Human), UniProt P98170, C202A/C213G); assay: TR-FRET assay for BIR2: inhibition of binding of XIAP BIR2 domain to Peptide A (SMAC-derived peptide); conditions: read-out: BIR2 IC50;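 also: percent inhibition measured across a concentration series of each compound, from which the IC50 was derived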
BIR2 domain of XIAP, sequence (P98170 other isoform, or with tags, fused parts or gaps, stated change not applied): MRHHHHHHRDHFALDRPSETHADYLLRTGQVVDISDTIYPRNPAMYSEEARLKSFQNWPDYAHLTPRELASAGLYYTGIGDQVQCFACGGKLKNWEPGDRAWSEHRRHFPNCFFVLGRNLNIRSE
Method: TR-FRET Assay for BIR2 and BIR3
The peptides were labeled with the fluorescent tags FITC or TAMRA and Kd values were determined by fluorescence polarization assay.
The peptide sequence was derivatized with biotin to provide [sequence]-(8-biotin)-OH 1:2 TFA as the substrate for the TR-FRET assay.
The XIAP protein sequence was obtained from the SWISS-PROT protein sequence database and the BIR2 and BIR3 domains were derived from that.
Percentage of inhibition at each concentration was determined to generate an IC50 value for each test compound.

BIR3 domain of XIAP, sequence (P98170 241-356 with tags or gaps limits assumed): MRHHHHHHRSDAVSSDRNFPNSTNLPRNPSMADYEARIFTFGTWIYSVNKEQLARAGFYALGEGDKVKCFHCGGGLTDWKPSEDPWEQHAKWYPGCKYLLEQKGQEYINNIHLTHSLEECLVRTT

IC50 [1]: > 54800 nM | IC50 [2]: 146 nM
Structure (SMILES): CCN[C@@H](C)C(=O)N[C@@H]1C(=O)N(Cc2nn(-c3ccccc3C#N)c3ccccc23)c2ccccc2O[C@H]1C [Example 74, (2S)-N-((2S,3S)-5-((1-(2-Cyanophenyl)-1H-indazol-3-yl)methyl)-2-methyl-4-oxo-2,3,4,5-tetrahydrobenzo[b][1,4]oxazepin-3-yl)-2-(ethylamino)propanamide trifluoroacetate]
